In US6271239A, “Delta opioid receptor-selective benzylidene-substituted morphinans” (Regents of the University of Minnesota, priority 1995, dated 2001):
Square brackets hold non-standard residues; d marks the D form. Peptide text beside a SMILES is read from it. * marks the point of attachment. Tyr(Nα,Nα-allyl2) = C=CCN(CC=C)[C@@H](Cc1ccc(O)cc1)C(=O)*; Aib = CC(C)(N)C(=O)O

Assays:
[1] = test system: ethanol drinking; details: in vivo; cited from earlier work
[2] = test system: alcohol relapse in recovering alcoholics; details: cited from earlier work
[3] = test system: ethanol intake; details: rat model of alcoholism; cited from earlier work
[4] = test system: ethanol drinking; details: rats bred for high voluntary ethanol drinking; application Ser. No. 07/750,109; cited from earlier work
[5] = biological target: T1, delta opioid receptor (δ; printed δ1 for DADLE in Table III) (Mus musculus, UniProt P32300); assay: Mouse vas deferens (MVD) smooth muscle, antagonism of DADLE; assay type: cell-based; details: data of Table II, MVD/GPI
T1 construct: Both vasa deferentia were dissected out of mice; from tissue; host or cells: mouse vas deferens
T1 sequence (P32300 whole entry): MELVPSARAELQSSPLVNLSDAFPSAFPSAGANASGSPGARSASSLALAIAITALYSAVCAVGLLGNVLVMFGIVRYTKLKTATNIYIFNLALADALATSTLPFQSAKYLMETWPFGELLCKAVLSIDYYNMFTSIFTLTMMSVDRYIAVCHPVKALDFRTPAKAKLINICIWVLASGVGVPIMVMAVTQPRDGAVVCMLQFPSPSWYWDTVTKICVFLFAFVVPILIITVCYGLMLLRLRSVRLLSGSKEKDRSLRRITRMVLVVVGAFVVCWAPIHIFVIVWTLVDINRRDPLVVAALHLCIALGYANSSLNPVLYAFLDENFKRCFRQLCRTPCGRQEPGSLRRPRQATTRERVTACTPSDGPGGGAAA
Protocol: This assay was performed according to the description by G. Henderson et al., Brit. J. Pharmacol., 46, 764 (1972). […] The organ bath was maintained at 37° C.
Concentration-response curves were obtained in the absence (control) and the presence of the antagonist are expressed as IC50 values. […] Therefore, a high IC50 ratio represents a correspondingly high degree of antagonism at a particular receptor. […] Therefore, a low Ke represents a correspondingly high degree of binding at a particular receptor.

[6] = test system: δ1 receptors; assay type: binding; details: guinea pig brain membranes
Protocol: Therefore, a better assessment of the δ subtype selectivity can be obtained from binding of brain membranes and from antagonism studies in mice. The binding of BNTX to guinea pig brain membranes was determined using the general method of L. L. Werling et al., J. Pharmacol. Exp. Ther., 233, 722 (1985), as modified by A. E. Takemori et al., J. Pharmacol. Exp. Ther., 246, 255 (1988). The radio-ligands employed were [^3 H]DPDPE ([D-Pen ^2, D-Pen^5 ] enkephalin) for δ1 receptors, [^3 H]DSLET([D-Ser^2 -Leu^5 ]enkephalin-Thr^6) for δ^2 receptors, [3H]DAMGO for μ receptors and U69593(trans-(+)-3,4-dichloro-N-methyl-N-[2-(1-pyrididinyl)cyclohexyl]benzeneacetamide) for κ receptors.

[7] = biological target: T2, δ2 opioid receptor (Mus musculus, UniProt P32300); assay: Mouse tail flick antinociception, antagonism of DSLET; assay type: in vivo; details: BNTX 6.25 pmol/i.c.v./mouse
T2 construct: from tissue; host or cells: live mouse (BNTX i.c.v.)
T2 sequence (P32300 whole entry): as above
Protocol: (§1) The antagonist effect of BNTX on antinociception was evaluated in mice using the tail flick assay, in accord with the procedure of A. E. Takemor, et al., J. Pharmacol. Exp. Ther., 243, 91 (1987). At least three groups of ten mice were used to generate dose-response curves. A mouse was regarded as positive for antinociception if the latency to flick its tail was more than the control latency plus 3 S.D. of the mean reaction time of the group. The reaction times were determined at the peak time for antinociception after administration of various agonists. Intra-cerebroventricular (i.c.v.) injections were made in a volume of 5 μl by the method of T. J. Haley et al., Br. J. Pharmacol., 12, 12 (1957).
(§2) On Table III, the potencies are expressed as ED50 ratios, which represent the ED50 of the standard agonist administered subcutaneously in the presence of BNTX (6.25 pmoL/i.c.v./mouse), divided by the ED50 of the standard agonist.

[8] = biological target: T3, μ opioid receptor (Mus musculus, UniProt P42866); assay: Mouse tail flick antinociception, antagonism of mu agonist; assay type: in vivo; details: BNTX 6.25 pmol/i.c.v./mouse
T3 construct: from tissue; host or cells: live mouse (BNTX i.c.v.)
T3 sequence (P42866 whole entry): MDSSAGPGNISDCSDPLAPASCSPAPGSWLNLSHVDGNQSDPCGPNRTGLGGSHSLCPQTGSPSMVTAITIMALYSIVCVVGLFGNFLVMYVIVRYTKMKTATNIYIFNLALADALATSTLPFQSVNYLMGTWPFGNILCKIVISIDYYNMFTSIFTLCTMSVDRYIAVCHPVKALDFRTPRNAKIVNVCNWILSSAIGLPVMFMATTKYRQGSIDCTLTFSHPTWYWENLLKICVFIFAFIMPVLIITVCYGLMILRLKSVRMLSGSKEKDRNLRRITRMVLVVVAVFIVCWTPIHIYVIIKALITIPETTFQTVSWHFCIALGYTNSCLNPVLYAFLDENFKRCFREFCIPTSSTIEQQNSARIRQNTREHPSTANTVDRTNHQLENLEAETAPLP
Protocol: as §1, §2

[9] = biological target: T4, κ opioid receptor (Mus musculus, UniProt P33534); assay: Mouse tail flick antinociception, antagonism of U50488H (κ agonist); assay type: in vivo; details: BNTX 6.25 pmol/i.c.v./mouse
T4 construct: from tissue; host or cells: live mouse (BNTX i.c.v.)
T4 sequence (P33534 whole entry): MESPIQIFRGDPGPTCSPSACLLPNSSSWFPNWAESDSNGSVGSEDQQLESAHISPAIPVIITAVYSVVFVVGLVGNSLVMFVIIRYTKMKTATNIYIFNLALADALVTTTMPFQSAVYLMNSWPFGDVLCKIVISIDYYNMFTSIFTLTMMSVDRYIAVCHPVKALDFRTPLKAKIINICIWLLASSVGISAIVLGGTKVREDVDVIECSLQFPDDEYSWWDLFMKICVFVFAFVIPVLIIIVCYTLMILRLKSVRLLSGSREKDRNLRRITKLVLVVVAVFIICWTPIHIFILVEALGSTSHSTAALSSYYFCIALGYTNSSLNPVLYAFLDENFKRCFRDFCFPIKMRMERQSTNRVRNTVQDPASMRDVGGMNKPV
Protocol: as §1, §2

For `C=CCN(CC=C)[C@@H](Cc1ccc(O)cc1)C(=O)NC(C)(C)C(=O)NC(C)(C)C(=O)N[C@@H](Cc1ccccc1)C(=O)N[C@@H](CC(C)C)C(=O)O` [ICI 174864, N,N-diallyl-Tyr-Aib-Aib-Phe-Leu-OH] ({Tyr(Nα,Nα-allyl2)}-[Aib][Aib]FL-OH), the duration of action [1] is listed as “very short duration of action” and the ethanol drinking [1] is listed as “strongly inhibits ethanol drinking”.

In the case of `O=C1CC[C@@]2(O)[C@H]3Cc4ccc(O)c5c4[C@@]2(CCN3CC2CC2)[C@H]1O5` [Naltrexone, naltrexone], the “incidence of relapse in recovering alcoholics” value [2] is given as “reduce the incidence of relapse in recovering alcoholics”.

In the case of `C=CCN1CC[C@]23c4c5ccc(O)c4O[C@H]2C(=O)CC[C@@]3(O)[C@H]1C5` [Naloxone, naloxone], the “ethanol and water intake” value [3] is given as “suppress ethanol but not water intake”.

In the case of `Oc1ccc2c3c1O[C@H]1c4oc5ccccc5c4C[C@@]4(O)[C@@H](C2)N(CC2CC2)CC[C@]314` [NTB], the “suppression of ethanol drinking / water intake” value [4] is given as “unexpectedly prolonged suppression of ethanol drinking without altering water intake”.

For `Oc1ccc2c3c1O[C@H]1c4[nH]c5ccccc5c4C[C@@]4(O)[C@@H](C2)N(CC2CC2)CC[C@]314` [NTI], the “suppression of ethanol drinking / water intake” value [4] is listed as “unexpectedly prolonged suppression of ethanol drinking without altering water intake”.

For `O=C1C(=Cc2ccccc2)C[C@@]2(O)[C@H]3Cc4ccc(O)c5c4[C@@]2(CCN3CC2CC2)[C@H]1O5` [BNTX, 7-Benzylidene-7-dehydronaltrexone], the “selectivity (smooth muscle, words)” value [5] was “δ-selective antagonist”, the “selectivity (binding, words)” value [6] was “highly selective for δ1 receptor sites” and the “shift of dose-response curve, DSLET” value ([7]; words) was “not shifted significantly”. For the same molecule, the “ED50 Ratio ("Potency Ratio"), DSLET (δ2)” value ([7]; ED50 of DSLET in presence of BNTX / ED50 of agonist) was 0.91, the “shift of dose-response curve, morphine” value ([8]; words) was “not shifted significantly” and the “ED50 Ratio ("Potency Ratio"), DAMGO (μ)” value ([8]; ED50 of DAMGO (so in the source) in presence of BNTX / ED50 of agonist) was 0.88. The “shift of dose-response curve, U50488H” value ([9]; words) was “not shifted significantly” and the “ED50 Ratio ("Potency Ratio"), U50488H (κ)” value ([9]; ED50 of U50488H in presence of BNTX / ED50 of agonist) was 1.2.
